Like-named read-outs stand apart in the source and are kept apart here.
What was measured:
[1] = test system: Leishmania promastigotes; test: Leishmania promastigotes Assay; type: cell-based; conditions: Leishmania; promastigotes, 3H-thymidine uptake; read-out: Leishmania IC50 ± SD
Procedure, shortened: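 L. major (WHO Iran vaccine strain) and L. donovani MHOM/KE/85/NLB 274 promastigotes (3×10^6/ml, day 3 and 6 cultures) exposed to compound 2 h at 26 °C, then 3H-thymidine 18 h; incorporation counted by scintillation. Microscopic counts and flagellar motility also assessed.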

[2] = Preliminary 14 days oral toxicity study in rats; type: in vivo; conditions: highest dose level 1000 mg/kg/day
Description: A preliminary 14 days oral toxicity study in rats was carried out with 6 compounds. Observations included clinical signs, body weights, food intake, haematology, clinical chemistry and macroscopic pathology.

[3] = test system: Plasmodium falciparum; test: Plasmodium falciparum Assay; type: cell-based; conditions: Plasmodium falciparum; 3-H-hypoxanthine incorporation, 48 hours; read-out: Plasmodium IC50 ± SD
Procedure, shortened: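 Parasitized erythrocytes (~1% parasitemia, 5×10^8/ml) cultured 48 h in RPMI with test compound, with 3H-hypoxanthine added for the last 24 h. Growth inhibition read as 3H-hypoxanthine incorporation into parasite DNA by liquid scintillation; uninfected and untreated infected cultures run in parallel.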

[4] = test system: human lymphocytes; test: Lymphocyte Proliferation Assay; type: cell-based; conditions: Lymphocyte; PHA provoked proliferation of human lymphocytes; read-out: Lymphocytes IC50 ± SD
Procedure, shortened: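 Ficoll-isolated human blood mononuclear cells (0.63×10^5/ml) in RPMI 1640 with 5% FCS were cultured in triplicate with test compound and PHA or PPD for 3 or 7 days. Proliferation measured by ^3H-thymidine incorporation over the final 24 h; triplicate median recorded.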

[5] = test system: Vero cell cultures; test: Cytotoxicity in Vero cell cultures; type: cell-based; conditions: Vero cells; values given as fractions, footnote a not given
Source text: (§1) In the following is reported the results from a Vero cell culture infected with different viruses. The cell culture used as well as the methods applied are well known to a person skilled in the art.

[6] = test system: cytomegalovirus AD-169 strain; test: Activity against cytomegalovirus in HEL cells (plaque formation); type: cell-based; conditions: virus plaque formation reduced by 50%, 100 PFU, values given as fractions
Description: (§2) IC50 values are determined by the virus plaque formation and/or the virus cytopathic assay using standard methods well-known in the art.

[7] = test system: cytomegalovirus Davis strain; test: as above; type: cell-based; conditions: virus plaque formation reduced by 50%, 100 PFU, values given as fractions
Description: as §2

[8] = test system: Parainfluenza-3 Virus; test: Antiviral activity in Vero cell cultures; type: cell-based; conditions: Vero cells; values given as fractions
Description: as §2, §1

[9] = test system: Simliki forest virus; test: Antiviral activity in Vero cell cultures; type: cell-based; conditions: Vero cells; values given as fractions
Description: as §2, §1

[10] = test system: Coxsackie virus B4; test: Antiviral activity in Vero cell cultures; type: cell-based; conditions: Vero cells; values given as fractions
Description: as §2, §1

[11] = test system: Reovirus-1; test: Antiviral activity in Vero cell cultures; type: cell-based; conditions: Vero cells; values given as fractions
Description: as §2, §1

[12] = test system: Sindbis virus; test: Antiviral activity in Vero cell cultures; type: cell-based; conditions: Vero cells; values given as fractions
Description: as §2, §1

[13] = test system: human embryonic lung (HEL) cells; test: Cytotoxicity in human embryonic lung (HEL) cells; type: cell-based; conditions: HEL cell growth reduced by 50%; values given as fractions
[14] = test system: mouse lymphoma tk; test: Mouse lymphoma tk assay
Source text: Following selection of SBC-35ma (3,5-dimethoxy-4′-allyloxychalcone) as a development candidate, this compound was studied in vitro using the chromosomal aberration assay with CHO cells and the mouse lymphoma tk assay.
In the screening design, three known drugs were included, namely chloroquine, pyrimethamine and artesunate.

[15] = molecular target: T1, succinate dehydrogenase of Helicobacter pylori (Helicobacter pylori, UniProt O06913); type: biochemical
T1 construct: endogenous in cells; host or cells: Helicobacter pylori (preparation for the SDH measurement not described; sonicate mentioned for FRD)
T1 sequence (O06913 1-714): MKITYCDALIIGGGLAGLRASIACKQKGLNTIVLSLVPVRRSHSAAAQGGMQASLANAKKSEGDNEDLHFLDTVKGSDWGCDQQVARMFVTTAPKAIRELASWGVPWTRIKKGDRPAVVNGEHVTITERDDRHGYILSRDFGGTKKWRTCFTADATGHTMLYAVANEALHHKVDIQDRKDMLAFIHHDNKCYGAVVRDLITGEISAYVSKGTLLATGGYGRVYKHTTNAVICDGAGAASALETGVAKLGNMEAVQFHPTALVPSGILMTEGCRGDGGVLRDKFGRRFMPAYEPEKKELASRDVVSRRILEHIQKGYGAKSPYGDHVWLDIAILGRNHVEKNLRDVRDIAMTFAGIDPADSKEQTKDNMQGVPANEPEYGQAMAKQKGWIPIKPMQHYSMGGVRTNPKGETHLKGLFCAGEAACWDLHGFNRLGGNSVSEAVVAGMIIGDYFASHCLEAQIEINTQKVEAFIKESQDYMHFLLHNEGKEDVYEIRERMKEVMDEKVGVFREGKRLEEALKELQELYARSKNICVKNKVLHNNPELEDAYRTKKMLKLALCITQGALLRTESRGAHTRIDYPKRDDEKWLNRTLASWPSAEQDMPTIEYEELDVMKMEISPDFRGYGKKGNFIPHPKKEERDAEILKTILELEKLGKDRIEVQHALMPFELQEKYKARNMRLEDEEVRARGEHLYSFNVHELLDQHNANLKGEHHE
T1 sequence (O06914 1-245 partner): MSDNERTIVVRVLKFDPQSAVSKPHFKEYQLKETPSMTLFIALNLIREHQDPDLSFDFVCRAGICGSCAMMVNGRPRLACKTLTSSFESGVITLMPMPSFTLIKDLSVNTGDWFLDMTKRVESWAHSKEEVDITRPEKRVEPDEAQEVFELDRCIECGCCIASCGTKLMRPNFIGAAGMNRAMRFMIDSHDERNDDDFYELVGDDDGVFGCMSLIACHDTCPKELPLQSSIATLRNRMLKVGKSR
T1 sequence (O06912 1-255 partner): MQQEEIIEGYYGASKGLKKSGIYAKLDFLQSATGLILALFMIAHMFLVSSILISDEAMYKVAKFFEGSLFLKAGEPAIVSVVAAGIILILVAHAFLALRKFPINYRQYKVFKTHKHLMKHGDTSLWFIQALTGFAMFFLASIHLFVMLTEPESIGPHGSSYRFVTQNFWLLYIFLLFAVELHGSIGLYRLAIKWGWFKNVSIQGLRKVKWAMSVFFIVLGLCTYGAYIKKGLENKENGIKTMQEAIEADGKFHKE

[16] = molecular target: T2, Helicobacter pylori fumarate reductase (Helicobacter pylori, UniProt O06913); type: biochemical
T2 construct: Membrane associated proteins were solubilized from the pellet in 150 mM KCl, pH 7.0; endogenous in cells; host or cells: Helicobacter pylori 007 strain; KCl-solubilised fraction (or sonicate supernatant)
T2 sequence (O06913 1-714): T1 sequence (O06913 1-714)
T2 sequence (O06914 1-245 partner): T1 sequence (O06914 1-245 partner)
T2 sequence (O06912 1-255 partner): T1 sequence (O06912 1-255 partner)
Description: 1) Extraction of soluble FRD: Bacteria were harvested by centrifugation at 18,000 g for 10 min at 4° C., and were washed 2 times in an isotonic phosphate saline buffer (50 mM sodium phosphate, pH 7.2, 90 mM NaCl, 5 mM Kcl). Bacteria were lysed in 5 mM Tris-HCl, pH 7.4, for 15 minutes, and centrifuged 18,000 g for 10 minutes. Membrane associated proteins were solubilized from the pellet in 150 mM KCl, pH 7.0, in ice bath for 60 min, and then the supernatant was collected after centrifugation (18,000 g for 10 minutes) for the measurement of FRD activity.
2) Extraction of FRD by sonication: Bacteria were harvested by centrifugation at 18,000 g for 10 min at 4° C., were sonicated, and then the supernatant was collected after centrifugation (18,000 g for 10 minutes) for the measurement of FRD activity.
NADH-FRD activity was determined as the rate of NADH-oxidation upon addition of 1 mM fumarate in the KCl-solubilized fraction or sonicated fraction. The reaction was monitored spectrophotometrically at 340 nm (∈=6.2 mM^−1 cm^−1) using 100 μM NADH and usually 3 mg protein in both reference and sample cuvettes. The measurement was carried out in a Shimadzu UV-190 double-beam spectrophotometer. Protein concentrations were determined using a Bio-Rad protein assay (Bio-Rad Laboratories, 200 Alfred Nobel Dr. Hercules, Calif. 94547, USA).
KCl solubilised fraction of bacteria was incubated with different concentrations of various oxygenated chalcones at 28° C. and the remaining FRD activity was measured. The IC50 values were determined as the concentration at which 50% of the activity was inhibited.

Row | Compound | IC50 [1] [µM] | toxic effects [2] | IC50 [3] [µM] | IC50 [4] [µM] | activity of succinate dehydrogenase [15] | also measured
1 | O=C(/C=C/c1ccccc1)c1ccc(O)cc1 [4′-OH, 4′-hydroxychalcone] | 16 ± 1 | inconclusive effect | 21 | 28 ± 1 |  | 
2 | COc1ccc(/C=C/C(=O)c2ccc(O)cc2)c(OC)c1 [24m4′hc, 2,4-dimethoxy-4′hydroxychalcone] | 48 ± 3 | No toxic effects | 11 | 71 ± 5 |  | 
3 | C=CCOc1ccc(C(=O)/C=C/c2ccc(OC)c(OC)c2)cc1 [34m4′ac, 3,4-dimethoxy-4′-allyloxychalcone] | 60 ± 5 | No toxic effects | 32 | 51 ± 6 |  | Minimum Cytotoxic Concentration [5]: <1/100; Antiviral activity IC50, AD-169 strain, Assay 1 [6]: <1/30; Antiviral activity IC50, Davis strain, Assay 1 [7]: 1/100; Minimum inhibitory concentration, Parainfluenza-3 Virus [8]: 1/6000; Minimum inhibitory concentration, Simliki forest virus [9]: 1/2000; Minimum inhibitory concentration, Coxsackie virus B4 [10]: 1/60000; Minimum inhibitory concentration, Reovirus-1 [11]: <1/100; Minimum inhibitory concentration, Sindbis virus [12]: 1/60000; Cytotoxicity CC50 [13]: <1/30
4 | CCN(CC)CCCC(C)Nc1ccnc2cc(Cl)ccc12 (stereo not shown) [Chloroquine, chloroquine] |  |  |  |  |  | mouse lymphoma tk assay, screening design ([14]; with S9 mix): questionable negative
5 | O=C(O)/C=C/C(=O)O [Fumarate] |  |  |  |  | concentration-dependent inhibitory effect | 
6 | C[C@H]1[C@H](OC(=O)CCC(=O)O)O[C@@H]2O[C@@]3(C)CC[C@H]4[C@H](C)CC[C@@H]1[C@@]24OO3 [artesunate] |  |  |  |  |  | mouse lymphoma tk assay, screening design [14]: positive
7 | CCc1nc(N)nc(N)c1-c1ccc(Cl)cc1 [pyrimethamine] |  |  |  |  |  | mouse lymphoma tk assay, screening design [14]: negative
8 | antimycin [reference compound] |  |  |  |  | could no inhibit it | activity of NADH-fumarate reductase [16]: could not inhibit it
9 | malonate |  |  |  |  | concentration-dependent inhibitory effect | 
